Reference: US20250092039A1, “GLUTARIMIDE-CONTAINING PAN-KRAS-MUTANT DEGRADER COMPOUNDS AND USES THEREOF” (Tiger Biotherapeutics Inc., priority 2022, published 2025)
Like-named read-outs stand apart in the source and are kept apart here. Values belong to the compound of their own block, whether it stands above or below them.

Tests used:
KRAS G12V = KRAS G12V (Homo sapiens (Human), UniProt P01116, G12V); test: KRAS G12V degradation in SW620 cells (Western blot, DC50); format: cell-based; settings: 24 hours
KRAS G12V, sequence (P01116-2 other isoform, or with tags, fused parts or gaps G12V): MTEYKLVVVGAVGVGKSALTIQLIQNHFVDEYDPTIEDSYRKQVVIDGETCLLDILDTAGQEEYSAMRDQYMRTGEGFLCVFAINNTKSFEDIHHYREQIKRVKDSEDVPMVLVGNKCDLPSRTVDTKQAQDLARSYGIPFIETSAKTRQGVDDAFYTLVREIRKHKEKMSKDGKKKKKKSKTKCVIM
Procedure, shortened: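 SW620 cells (homozygous KRAS G12V) were treated with compound for 24 hours at 37° C. KRAS in lysates was measured by Western blot with fluorescent secondary antibodies and expressed relative to DMSO vehicle (100%). DC50 came from a four-parameter variable-slope dose-response fit.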

KRAS-G12V/RAF1 = KRAS-G12V/RAF1 (Homo sapiens (Human), UniProt P01116, G12V); test: KRAS/RAF1 binding inhibition assay (AlphaScreen)
KRAS-G12V/RAF1, sequence (P01116-2 other isoform, or with tags, fused parts or gaps G12V): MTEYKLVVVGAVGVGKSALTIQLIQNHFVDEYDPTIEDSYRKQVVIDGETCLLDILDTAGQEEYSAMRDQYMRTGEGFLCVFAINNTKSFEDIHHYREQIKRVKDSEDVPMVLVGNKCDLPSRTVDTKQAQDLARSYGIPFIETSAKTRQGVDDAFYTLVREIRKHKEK
Procedure, shortened: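 Binding of GppNHp-loaded KRAS G12V to the RAF1 RBD was measured by AlphaScreen with test compound present in 2% DMSO (final), 60 min incubation at 4° C. Signals were converted to % inhibition versus DMSO, and IC50 was obtained by variable-slope nonlinear regression.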

SW620 cells = test: 3D cell growth inhibition of SW620 cells carrying endogenous KRAS G12V mutation (CellTiter-Glo 3D, GI50); format: cell-based; settings: Homo sapiens, SW-620, 144 h, read-out: SW620 3D cell growth GI50
Procedure, shortened: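 SW620 cells (endogenous KRAS G12V) grown in 3D were dosed next day with compound from DMSO stocks at various concentrations, then incubated 6 days at 37° C.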

Compound: CCc1c(F)ccc2cc(O)cc(-c3ncc4c(N5CCC[C@]6(CCO6)C5)nc(OCC5(CN6CCC7(CC6)CC(N6CCN(c8ccc9c(c8)CN([C@H]8CCC(=O)NC8=O)C9=O)CC6)C7)CC5)nc4c3F)c12 [Compound 218, (S)-3-(5-(4-(7-((1-(((7-(8-ethyl-7-fluoro-3-hydroxynaphthalen-1-yl)-8-fluoro-4-((S)-1-oxa-6-azaspiro[3.5]nonan-6-yl)pyrido[4,3-d]pyrimidin-2-yl)oxy)methyl)cyclopropyl)methyl)-7-azaspiro[3.5]nonan-2-yl)piperazin-1-yl)-1-oxoisoindolin-2-yl)piperidine-2,6-dione]
DC50 (KRAS G12V): < 1 nM
IC50 (KRAS-G12V/RAF1): 20 to 200 nM
GI50 (SW620 cells; SW620 cells, 6 days): < 10 nM

Compound: CCc1c(F)ccc2cc(O)cc(-c3ncc4c(N5CCC[C@@](C)(O)C5)nc(OCC5(CN6CCC(N7CC(N8CCN(c9ccc%10c(c9)CN([C@H]9CCC(=O)NC9=O)C%10=O)CC8)C7)CC6)CC5)nc4c3F)c12 [Compound 146, (S)-3-(5-(4-(1-(1-((1-(((7-(8-ethyl-7-fluoro-3-hydroxynaphthalen-1-yl)-8-fluoro-4-((R)-3-hydroxy-3-methylpiperidin-1-yl)pyrido[4,3-d]pyrimidin-2-yl)oxy)methyl)cyclopropyl)methyl)piperidin-4-yl)azetidin-3-yl)piperazin-1-yl)-1-oxoisoindolin-2-yl)piperidine-2,6-dione]
DC50 (KRAS G12V): < 1 nM
IC50 (KRAS-G12V/RAF1): < 20 nM
GI50 (SW620 cells; SW620 cells, 6 days): < 10 nM

Compound: C[C@@]1(O)CCCN(c2nc(OCC3(CN4CC(N5CC(N6CCN(c7ccc8c(c7)CN([C@H]7CCC(=O)NC7=O)C8=O)CC6)C5)C4)CC3)nc3c(F)c(-c4cc(O)cc5ccc(F)c(F)c45)ncc23)C1 [Compound 169, (S)-3-(5-(4-(1′-((1-(((7-(7,8-difluoro-3-hydroxynaphthalen-1-yl)-8-fluoro-4-((R)-3-hydroxy-3-methylpiperidin-1-yl)pyrido[4,3-d]pyrimidin-2-yl)oxy)methyl)cyclopropyl)methyl)-[1,3′-biazetidin]-3-yl)piperazin-1-yl)-1-oxoisoindolin-2-yl)piperidine-2,6-dione]
DC50 (KRAS G12V): > 100 nM
IC50 (KRAS-G12V/RAF1): 20 to 200 nM
GI50 (SW620 cells; SW620 cells, 6 days): > 100 nM

Compound: CCc1c(F)ccc2cc(O)cc(-c3ncc4c(N5CCC[C@@](C)(O)C5)nc(OCC5(CN6CCC7(CC6)CN(CC6CCN(c8ccc9c(c8)CN(C8CCC(=O)NC8=O)C9=O)CC6)C7)CC5)nc4c3F)c12 (stereo partly drawn) [Compound 131, 3-(5-(4-((7-((1-(((7-(8-ethyl-7-fluoro-3-hydroxynaphthalen-1-yl)-8-fluoro-4-((R)-3-hydroxy-3-methylpiperidin-1-yl)pyrido[4,3-d]pyrimidin-2-yl)oxy)methyl)cyclopropyl)methyl)-2,7-diazaspiro[3.5]nonan-2-yl)methyl)piperidin-1-yl)-1-oxoisoindolin-2-yl)piperidine-2,6-dione]
DC50 (KRAS G12V): < 1 nM
IC50 (KRAS-G12V/RAF1): < 20 nM
GI50 (SW620 cells): < 10 nM

Compound: CCc1c(F)ccc2cc(O)cc(-c3ncc4c(N5CCOC[C@@](C)(O)C5)nc(OCC5(CN6CCC7(CC6)CC(CN6CCN(c8ccc9c(c8)CN([C@H]8CCC(=O)NC8=O)C9=O)CC6)C7)CC5)nc4c3F)c12 [Compound 105, (S)-3-(5-(4-((7-((1-(((7-(8-ethyl-7-fluoro-3-hydroxynaphthalen-1-yl)-8-fluoro-4-((S)-6-hydroxy-6-methyl-1,4-oxazepan-4-yl)pyrido[4,3-d]pyrimidin-2-yl)oxy)methyl)cyclopropyl)methyl)-7-azaspiro[3.5]nonan-2-yl)methyl)piperazin-1-yl)-1-oxoisoindolin-2-yl)piperidine-2,6-dione]
DC50 (KRAS G12V): > 100 nM
IC50 (KRAS-G12V/RAF1): 20 to 200 nM
GI50 (SW620 cells; SW620 cells, 6 days): > 100 nM

Compound: CCc1c(F)ccc2cc(O)cc(-c3ncc4c(N5CCC(O)CC5)nc(OCC5(CN6CCC7(CC6)CC(CN6CCN(c8ccc9c(c8)CN([C@H]8CCC(=O)NC8=O)C9=O)CC6)C7)CC5)nc4c3F)c12 [Compound 114, (S)-3-(5-(4-((7-((1-(((7-(8-ethyl-7-fluoro-3-hydroxynaphthalen-1-yl)-8-fluoro-4-(4-hydroxypiperidin-1-yl)pyrido[4,3-d]pyrimidin-2-yl)oxy)methyl)cyclopropyl)methyl)-7-azaspiro[3.5]nonan-2-yl)methyl)piperazin-1-yl)-1-oxoisoindolin-2-yl)piperidine-2,6-dione]
DC50 (KRAS G12V): > 100 nM
IC50 (KRAS-G12V/RAF1): > 200 nM
GI50 (SW620 cells; SW620 cells, 6 days): > 100 nM

Compound: CCc1c(F)ccc2cc(O)cc(-c3ncc4c(N5CCC[C@@](C)(O)C5)nc(OCC5(CN6CCN(CC7CCN(c8ccc9c(c8)CN([C@H]8CCC(=O)NC8=O)C9=O)CC7)CC6)CC5)nc4c3F)c12 [Compound 10, (S)-3-(5-(4-((4-((1-(((7-(8-ethyl-7-fluoro-3-hydroxynaphthalen-1-yl)-8-fluoro-4-((R)-3-hydroxy-3-methylpiperidin-1-yl)pyrido[4,3-d]pyrimidin-2-yl)oxy)methyl)cyclopropyl)methyl)piperazin-1-yl)methyl)piperidin-1-yl)-1-oxoisoindolin-2-yl)piperidine-2,6-dione]
DC50 (KRAS G12V): < 1 nM
IC50 (KRAS-G12V/RAF1): 20 to 200 nM
GI50 (SW620 cells; SW620 cells, 6 days): < 10 nM

Compound: CCc1c(F)ccc2cc(O)cc(-c3ncc4c(N5CCOCC6(CCO6)C5)nc(OCC5(CN6CCC7(CC6)CC(CN6CCN(c8ccc9c(c8)CN([C@H]8CCC(=O)NC8=O)C9=O)CC6)C7)CC5)nc4c3F)c12 (stereo partly drawn) [Compound 124, (3S)-3-(5-(4-((7-((1-(((7-(8-ethyl-7-fluoro-3-hydroxynaphthalen-1-yl)-8-fluoro-4-(1,6-dioxa-9-azaspiro[3.6]decan-9-yl)pyrido[4,3-d]pyrimidin-2-yl)oxy)methyl)cyclopropyl)methyl)-7-azaspiro[3.5]nonan-2-yl)methyl)piperazin-1-yl)-1-oxoisoindolin-2-yl)piperidine-2,6-dione]
DC50 (KRAS G12V): 1 to 10 nM
IC50 (KRAS-G12V/RAF1): 20 to 200 nM
GI50 (SW620 cells; SW620 cells, 6 days): < 10 nM

Compound: CCc1cccc2cc(O)cc(-c3ncc4c(N(C)[C@@H]5C[C@H]5F)nc(OCC5(CN6CCC7(CC6)CC(CN6CCN(c8ccc9c(c8)CN([C@H]8CCC(=O)NC8=O)C9=O)CC6)C7)CC5)nc4c3F)c12 [Compound 27, (S)-3-(5-(4-((7-((1-(((7-(8-ethyl-3-hydroxynaphthalen-1-yl)-8-fluoro-4-(((1R,2R)-2-fluorocyclopropyl)(methyl)amino)pyrido[4,3-d]pyrimidin-2-yl)oxy)methyl)cyclopropyl)methyl)-7-azaspiro[3.5]nonan-2-yl)methyl)piperazin-1-yl)-1-oxoisoindolin-2-yl)piperidine-2,6-dione]
DC50 (KRAS G12V): 1 to 10 nM
IC50 (KRAS-G12V/RAF1): > 200 nM
GI50 (SW620 cells; SW620 cells, 6 days): 10 to 100 nM

Next, values leading:

DC50 (KRAS G12V): 1 to 10 nM
IC50 (KRAS-G12V/RAF1): < 20 nM
GI50 (SW620 cells; SW620 cells, 6 days): 10 to 100 nM
Compound: CCc1c(F)ccc2cc(O)cc(-c3ncc4c(N5CCC[C@@](C)(O)C5)nc(OCC5(CN6CC(N7CC(CN8CCN(c9ccc%10c(c9)CN([C@@H]9CCC(=O)NC9=O)C%10=O)CC8)C7)C6)CC5)nc4c3F)c12 [Compound 9, (R)-3-(5-(4-((1′-((1-(((7-(8-ethyl-7-fluoro-3-hydroxynaphthalen-1-yl)-8-fluoro-4-((R)-3-hydroxy-3-methylpiperidin-1-yl)pyrido[4,3-d]pyrimidin-2-yl)oxy)methyl)cyclopropyl)methyl)-[1,3′-biazetidin]-3-yl)methyl)piperazin-1-yl)-1-oxoisoindolin-2-yl)piperidine-2,6-dione]

DC50 (KRAS G12V; cell prints a figure, not a class symbol): 2 nM
IC50 (KRAS-G12V/RAF1): 20 to 200 nM
GI50 (SW620 cells; SW620 cells, 6 days): < 10 nM
Compound: CCc1c(F)ccc2cc(O)cc(-c3ncc4c(N5CCOC[C@@](C)(O)C5)nc(OCC5(CN6CCC(CN7CCN(c8ccc9c(c8)CN([C@H]8CCC(=O)NC8=O)C9=O)CC7)CC6)CC5)nc4c3F)c12 [Compound 104, (3S)-3-[5-[4-[[1-[[1-[[7-(8-ethyl-7-fluoro-3-hydroxy-1-naphthyl)-8-fluoro-4-[(6S)-6-hydroxy-6-methyl-1,4-oxazepan-4-yl]pyrido[4,3-d]pyrimidin-2-yl]oxymethyl]cyclopropyl]methyl]-4-piperidyl]methyl]piperazin-1-yl]-1-oxo-isoindolin-2-yl]piperidine-2,6-dione]

DC50 (KRAS G12V): 1 to 10 nM
IC50 (KRAS-G12V/RAF1): < 20 nM
GI50 (SW620 cells; SW620 cells, 6 days): 10 to 100 nM
Compound: CCc1c(F)ccc2cc(O)cc(-c3ncc4c(N5CCC[C@@](C)(O)C5)nc(OCC5(CN6CCC(O)(CN7CCN(c8ccc9c(c8)CN([C@H]8CCC(=O)NC8=O)C9=O)CC7)CC6)CC5)nc4c3F)c12 [Compound 13, (S)-3-(5-(4-((1-((1-(((7-(8-ethyl-7-fluoro-3-hydroxynaphthalen-1-yl)-8-fluoro-4-((R)-3-hydroxy-3-methylpiperidin-1-yl)pyrido[4,3-d]pyrimidin-2-yl)oxy)methyl)cyclopropyl)methyl)-4-hydroxypiperidin-4-yl)methyl)piperazin-1-yl)-1-oxoisoindolin-2-yl)piperidine-2,6-dione]

DC50 (KRAS G12V): > 100 nM
IC50 (KRAS-G12V/RAF1): > 200 nM
GI50 (SW620 cells; SW620 cells, 6 days): 10 to 100 nM
Compound: C[C@@]1(O)CCCN(c2nc(OCC3(CN4CC5(CCC(F)(CN6CCN(c7ccc8c(c7)CN([C@H]7CCC(=O)NC7=O)C8=O)CC6)CC5)C4)CC3)nc3c(F)c(-c4cc(O)cc5ccc(F)c(F)c45)ncc23)C1 [Compound 177, (S)-3-(5-(4-((2-((1-(((7-(7,8-difluoro-3-hydroxynaphthalen-1-yl)-8-fluoro-4-((R)-3-hydroxy-3-methylpiperidin-1-yl)pyrido[4,3-d]pyrimidin-2-yl)oxy)methyl)cyclopropyl)methyl)-7-fluoro-2-azaspiro[3.5]nonan-7-yl)methyl)piperazin-1-yl)-1-oxoisoindolin-2-yl)piperidine-2,6-dione]
